# Measurements as given in patent US20080248993A1, “Modified Beta Thymosin Peptides” (REGENERX BIOPHARMACEUTICALS, INC., priority 2005, published 2008).
# Where two headings read alike, the source gives them in different places.
# Molecular target: G-actin
# Assay: G-actin binding affinity (ultrafiltration of free and bound peptide, HPLC of the ultrafiltrate)
# Experimental: Tests were conducted to determine the G-actin binding affinity of Tβ4^leu as compared to native Tβ4. The experiments were repeated twice and in triplicate, with the results shown below (averages from 3 experiments):
# The lower values in the case of Tβ4 are caused by its sulfoxide. Tβ4 plus Tβ4-sulfoxide was determined by amino acid analysis. […] Thus the real concentration of Tβ4 in the tests are lower and the decrease of free Tβ4 is higher when compared to non-oxidized Tβ4. The decrease of free beta-thymosin was measured. G-actin bound Tβ4 and free Tβ4 were separated by ultrafiltration and the concentration of Tβ4 in the ultrafiltrate was measured by HPLC. The procedure utilized is described in Huff et al., FEPS Letters, 414:39-44 (1997).
# [1] = First determination, averages from 3 experiments, read-out: Kd, G-actin binding
# [2] = Second determination, averages from 3 experiments, read-out: Kd, G-actin binding
Substance,Kd [1] [µM],Kd [2] [µM],"G-actin binding, in words (qualitative statement)","Kd (Example 8, comparison of Tβ4-sulfone with Tβ4 and Tβ4-sulfoxide, read-out: Kd value of the complex with G-actin) [µM]"
"Tβ4^leu: Thymosin β4 with leucine substituted for methionine at position 6 (SDKPDLAEIEKFDKSKLKKTETQEKNPLPSKETIEQEKQAGES; not fully specified; Thymosin beta-4; UniProt P62328 2-44, looked up, variant M6L)",1.36,0.99,substantial actin-binding activity,
"Tβ4: Native 43 amino acid, 4.9 kDa polypeptide with methionine at position 6; comparator",1.28,0.54,,1
